Data taken from paper PMC8943889, “Synthetic studies with the brevicidine and laterocidine lipopeptide antibiotics including analogues with enhanced properties and in vivo efficacy” (Chemical Science, 2022).
In brackets after ≈: the same amount, converted by molar mass.

Key:
Assay type in all cases: cell-based
[1] = tested on: E. coli ATCC 25922; experiment: LPS antagonization assay; conditions: E. coli ATCC 25922, MHB supplemented with 1 mg/mL LPS from E. coli O55:B5, 16 h 37 °C
Protocol: Figure S6. LPS antagonization assay. A blood agar plate was inoculated with a glycerol stock of E. coli ATCC 25922. The […]
inoculated agar plate was then incubated for 16 h at 37 °C. An individually grown colony was subsequently used to inoculate 3 mL […]
of TSB that was then incubated at 37 °C with shaking at 220 rpm. In parallel, the compounds to be assessed were serially diluted […]
with Mueller-Hinton broth (MHB) in polypropylene 96-well plates (50 µL in each well). Once the OD600 of the bacterial […]
suspensions reached 0.5, the bacteria were diluted with MHB (final concentration 2 × 10^5 CFU mL−1). The media were then either […]
supplemented with 1 mg/mL of LPS (lipopolysaccharides from E. coli O55:B5, Sigma-Aldrich) or added directly to the microplates […]
containing the test compounds (50 µL to each well, final volume: 100 µL). The well-plates were sealed with an adhesive membrane and after 16 h of incubation at 37°C with shaking at 220 rpm. The w ells were visually inspected for bacterial growth.
(1 picture or pasted object on this page, not shown here)

[2] = tested on: Gram-negative bacteria; experiment: MIC comparison across the bacterial panel of Table 1; conditions: enantiomer versus natural product, strains of Table 1
Protocol: (§1) Minimum inhibitory concentrations (MICs) were determined by broth microdilution according to CLSI guidelines in triplicate. Blood agar plates were inoculated with glycerol stocks of E. coli ATCC 25922, E. coli MCR-1 (clinical isolate from Utrecht Medical Centre, NL), E. coli EQAS MCR-2 (clinical isolate from Wageningen University and Research, NL), K. pneumoniae ATCC 11228, K. pneumoniae ATCC 13883, K. pneumonia 2048 (clnical isolate from Vrije Universiteit Amsterdam Medical Centre, NL), K. pneumonia JS-123 (clinical isolate from Utrecht Medical […]
(clinical isolate from Rijksinstituut voor Volksgezondheid en Milieu, NL), A. baumannii MDR (clinical isolate from Vrije Universiteit Amsterdam Medical Centre, NL), P. aeruginosa ATCC 27853, P. aeruginosa PAO1, P. aeruginosa NRZ-03961 (Reference strain from Das Nationale Referenzzentrum für gramnegative Krankenhauserreger, DE), P. aeruginosa M-120 (clinical isolate from Leiden University Medical Centre, NL) and S. aureus USA300 (clinical isolate from Texas Children's Hospital, USA). E. coli 25922 MCR1 was grown on LB agar supplemented with kanamycin. The inoculated agar plates were then incubated for 16 h at 37°C . […] In parallel, the lipopeptide antibiotics to be assessed were serially diluted with Mueller-Hinton broth (MHB) in polypropylene 96-well plates (50 µL in each well). […]

[3] = tested on: P. aeruginosa NRZ-03961; conditions: NRZ-03961, 16 h
Protocol: as §1
(§2) (clinical isolate from Rijksinstituut voor Volksgezondheid en Milieu, NL), A. baumannii MDR (clinical isolate from Vrije Universiteit Amsterdam Medical Centre, NL), P. aeruginosa ATCC 27853, P. aeruginosa PAO1, P. aeruginosa NRZ-03961 (Reference strain from Das Nationale Referenzzentrum für gramnegative Krankenhauserreger, DE), P. aeruginosa M-120 (clinical isolate from Leiden University Medical Centre, NL) and S. aureus USA300 (clinical isolate from Texas Children's Hospital, USA). E. coli 25922 MCR1 was grown on LB agar supplemented with kanamycin. The inoculated agar plates were then incubated for 16 h at 37°C . Individually grown colonies were subsequently used to inoculate 3 mL aliquots of TSB that were then incubated at 37°C with shaking at 220 rpm. In parallel, the lipopeptide antibiotics to be assessed were serially diluted with Mueller-Hinton broth (MHB) in polypropylene 96-well plates (50 µL in each well).
(§3) Once the OD600 of the bacterial suspensions reached 0.5, the bacteria were diluted with MHB (final concentration 2 × 10^5 CFU mL−1) and added to the microplates containing the test compounds (50 µL to each well, final volume: 100 µL). The well-plates were sealed with an adhesive membrane and after 16 h of incubation at 37°C with shaking at 220 rpm the wells were visually inspected for bacterial growth. MIC values reported are based on three technical replicates and defined as the lowest concentration of the compound that prevented visible growth of bacteria. […]

[4] = tested on: A. baumannii 2018-006; conditions: 2018-006, 16 h
Protocol: as §1, §2, §3

[5] = tested on: A. baumannii ATCC 17961; conditions: ATCC 17961, 16 h
Protocol: as §1, §2, §3

[6] = tested on: P. aeruginosa ATCC 27853; conditions: ATCC 27853, 16 h
Protocol: as §1, §2, §3

[7] = tested on: K. pneumoniae JS-123; conditions: JS-123, 16 h
Protocol: as §1, §2, §3

[8] = tested on: K. pneumoniae ATCC 13883; conditions: ATCC 13883, 16 h
Protocol: as §1, §2, §3

[9] = tested on: A. baumannii ATCC 17978; conditions: ATCC 17978, 16 h
Protocol: as §1, §2, §3

[10] = tested on: P. aeruginosa PAO1; conditions: PAO1, 16 h
Protocol: as §1, §2, §3

[11] = tested on: E. coli ATCC 25922; conditions: ATCC 25922, 16 h
Protocol: as §1, §2, §3

[12] = tested on: P. aeruginosa M-120; conditions: M-120, 16 h
Protocol: as §1, §2, §3

[13] = tested on: K. pneumoniae ATCC 11228; conditions: ATCC 11228, 16 h
Protocol: as §1, §2, §3

[14] = tested on: S. aureus USA300; conditions: USA300, 16 h
Protocol: as §1, §2, §3

[15] = tested on: K. pneumoniae 2048; conditions: 2048, 16 h
Protocol: as §1, §2, §3

Structure (SMILES)	decrease of antibacterial activity in the presence of LPS [1] [fold]	MIC values higher than the natural products [2]	MIC [3] [µg/mL]	MIC [4] [µg/mL]	MIC [5] [µg/mL]	MIC [6] [µg/mL]	MIC [7] [µg/mL]	MIC [8] [µg/mL]	MIC [9] [µg/mL]	MIC [10] [µg/mL]	MIC [11] [µg/mL]	MIC [12] [µg/mL]	MIC [13] [µg/mL]	MIC [14] [µg/mL]	MIC [15] [µg/mL]
CC[C@@H](C)[C@H]1NC(=O)[C@H](NC(=O)[C@@H](Cc2c[nH]c3ccccc23)NC(=O)[C@H](CCCN)NC(=O)CNC(=O)[C@@H](CCCN)NC(=O)[C@H](CCCN)NC(=O)[C@H](Cc2c[nH]c3ccccc23)NC(=O)[C@H](Cc2ccc(O)cc2)NC(=O)[C@H](CO)NC(=O)CCCCCC(C)C)[C@H](C)OC(=O)CNC(=O)CNC(=O)[C@@H](CC(N)=O)NC1=O (single isomer, unassigned) [ent-Lat (ent-2), ent-laterocidine]	≥ 8	8- to 32 fold	16 (≈ 9.97 µM)	4 (≈ 2.49 µM)	4 (≈ 2.49 µM)	8 (≈ 4.98 µM)	4 (≈ 2.49 µM)	16 (≈ 9.97 µM)	4 (≈ 2.49 µM)	16 (≈ 9.97 µM)	8 (≈ 4.98 µM)	16 (≈ 9.97 µM)	16 (≈ 9.97 µM)	64 (≈ 39.9 µM)	16 (≈ 9.97 µM)
CC[C@H](C)[C@@H]1NC(=O)[C@@H](NC(=O)[C@H](Cc2c[nH]c3ccccc23)NC(=O)[C@@H](CCCN)NC(=O)CNC(=O)[C@H](CCCN)NC(=O)[C@@H](CCCN)NC(=O)[C@@H](Cc2c[nH]c3ccccc23)NC(=O)[C@@H](Cc2ccc(O)cc2)NC(=O)[C@@H](CO)NC(=O)CCCCCC(C)C)[C@@H](C)OC(=O)CNC(=O)CNC(=O)[C@H](CC(N)=O)NC1=O [Lat (2), laterocidine]	≥ 8		1 to 2	2 (≈ 1.25 µM)	0.5 (≈ 0.312 µM)	≤0.5	0.5 (≈ 0.312 µM)	1 (≈ 0.623 µM)	0.5 (≈ 0.312 µM)	1 (≈ 0.623 µM)	1 (≈ 0.623 µM)	1 (≈ 0.623 µM)	2 (≈ 1.25 µM)	64 (≈ 39.9 µM)	2 (≈ 1.25 µM)
